PubChem BioAssay (NCI)
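Values below derive from 48-hour exposures of cells grown in 96-well plates, with endpoints linearly interpolated between the two concentrations bracketing the appropriate inhibition level. Here, GI50 denotes the concentration required for 50% inhibition of growth. Definition used: TGI = concentration required for complete inhibition of growth.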

What was measured:
Experiment in all cases: growth of human tumour cells (NCI), 48 h
SNB-75 CNS = test system: SNB-75 CNS
786-0 renal = test system: 786-0 renal
NCI-H460 lung = test system: NCI-H460 lung
RXF 393 renal = test system: RXF 393 renal
UACC-257 melanoma = test system: UACC-257 melanoma
MALME-3M melanoma = test system: MALME-3M melanoma
LOX IMVI melanoma = test system: LOX IMVI melanoma
PC-3 prostate = test system: PC-3 prostate
UO-31 renal = test system: UO-31 renal
CCRF-CEM leukemia = test system: CCRF-CEM leukemia
HOP-92 NSCLC = test system: HOP-92 NSCLC
HT29 colon = test system: HT29 colon
RPMI-8226 leukemia = test system: RPMI-8226 leukemia
COLO 205 colon = test system: COLO 205 colon
EKVX NSCLC = test system: EKVX NSCLC
HOP-62 NSCLC = test system: HOP-62 NSCLC
K-562 leukemia = test system: K-562 leukemia
SNB-19 CNS = test system: SNB-19 CNS
SN12C renal = test system: SN12C renal
CAKI-1 renal = test system: CAKI-1 renal
SR leukemia = test system: SR leukemia
SF-295 CNS = test system: SF-295 CNS
MOLT-4 leukemia = test system: MOLT-4 leukemia
U251 CNS = test system: U251 CNS
NCI-H522 lung = test system: NCI-H522 lung
A549 NSCLC = test system: A549 NSCLC
DU-145 prostate = test system: DU-145 prostate
HL-60(TB) leukemia = test system: HL-60(TB) leukemia
SK-OV-3 ovarian = test system: SK-OV-3 ovarian
MDA-MB-231 breast = test system: MDA-MB-231 breast
SK-MEL-2 melanoma = test system: SK-MEL-2 melanoma
NCI-H23 lung = test system: NCI-H23 lung
IGROV1 ovarian = test system: IGROV1 ovarian
SK-MEL-5 melanoma = test system: SK-MEL-5 melanoma
UACC-62 melanoma = test system: UACC-62 melanoma
OVCAR-3 ovarian = test system: OVCAR-3 ovarian
OVCAR-5 ovarian = test system: OVCAR-5 ovarian
NCI/ADR-RES ovarian = test system: NCI/ADR-RES ovarian
SF-268 CNS = test system: SF-268 CNS
TK-10 renal = test system: TK-10 renal
OVCAR-4 ovarian = test system: OVCAR-4 ovarian
MCF7 breast = test system: MCF7 breast
BT-549 breast = test system: BT-549 breast
OVCAR-8 ovarian = test system: OVCAR-8 ovarian
HS 578T breast = test system: HS 578T breast
A498 renal = test system: A498 renal
SF-539 CNS = test system: SF-539 CNS
T-47D breast = test system: T-47D breast

`C=C(c1ccc(OC)c(/C=C/C(=O)c2ccc3c(c2)OCO3)c1)c1cc(OC)c(OC)c(OC)c1` showed a GI50 (SNB-75 CNS) of 1.64 µM, a TGI (SNB-75 CNS) of 7.08 µM and a GI50 (786-0 renal) of 2.16 µM. For the same compound, the TGI (786-0 renal) was 5.61 µM, the GI50 (NCI-H460 lung) was 2.34 µM and the TGI (NCI-H460 lung) was 6.21 µM. The GI50 (RXF 393 renal) was 1.98 µM, the TGI (RXF 393 renal) was 5.17 µM and the GI50 (UACC-257 melanoma) was 6.69 µM. For the same compound, the TGI (UACC-257 melanoma) was over 100 µM, the GI50 (MALME-3M melanoma) was over 100 µM and the TGI (MALME-3M melanoma) was over 100 µM. The GI50 (LOX IMVI melanoma) was 1.58 µM, the TGI (LOX IMVI melanoma) was 3.52 µM and the GI50 (PC-3 prostate) was 2.91 µM. For the same compound, the TGI (PC-3 prostate) was over 100 µM, the GI50 (UO-31 renal) was 3.1 µM and the TGI (UO-31 renal) was over 100 µM. The GI50 (CCRF-CEM leukemia) was 0.916 µM, the TGI (CCRF-CEM leukemia) was over 100 µM and the GI50 (HOP-92 NSCLC) was 1.78 µM. It also gave a TGI (HOP-92 NSCLC) of over 100 µM, a GI50 (HT29 colon) of 2.98 µM and a TGI (HT29 colon) of 10.4 µM. It also gave a GI50 (RPMI-8226 leukemia) of 1.56 µM, a TGI (RPMI-8226 leukemia) of 7.39 µM and a GI50 (COLO 205 colon) of 4.15 µM. For the same compound, the TGI (COLO 205 colon) was over 100 µM, the GI50 (EKVX NSCLC) was 4.67 µM and the TGI (EKVX NSCLC) was over 100 µM. For the same compound, the GI50 (HOP-62 NSCLC) was 4.16 µM, the TGI (HOP-62 NSCLC) was over 100 µM and the GI50 (K-562 leukemia) was 0.783 µM. The TGI (K-562 leukemia) was 13.9 µM, the GI50 (SNB-19 CNS) was 2.79 µM and the TGI (SNB-19 CNS) was over 100 µM. It also gave a GI50 (SN12C renal) of 3.84 µM, a TGI (SN12C renal) of over 100 µM and a GI50 (CAKI-1 renal) of 3.02 µM. For the same compound, the TGI (CAKI-1 renal) was over 100 µM, the GI50 (SR leukemia) was 0.907 µM and the TGI (SR leukemia) was over 100 µM. It also gave a GI50 (SF-295 CNS) of 4.14 µM, a TGI (SF-295 CNS) of over 100 µM and a GI50 (MOLT-4 leukemia) of 3.08 µM. The TGI (MOLT-4 leukemia) was over 100 µM, the GI50 (U251 CNS) was 2.54 µM and the TGI (U251 CNS) was 9.88 µM. For the same compound, the GI50 (NCI-H522 lung) was 1.55 µM, the TGI (NCI-H522 lung) was 4.78 µM and the GI50 (A549 NSCLC) was 3.54 µM. The TGI (A549 NSCLC) was over 100 µM, the GI50 (DU-145 prostate) was 5.54 µM and the TGI (DU-145 prostate) was over 100 µM. The GI50 (HL-60(TB) leukemia) was 2.67 µM, the TGI (HL-60(TB) leukemia) was over 100 µM and the GI50 (SK-OV-3 ovarian) was 5.07 µM. It also gave a TGI (SK-OV-3 ovarian) of over 100 µM, a GI50 (MDA-MB-231 breast) of 5.97 µM and a TGI (MDA-MB-231 breast) of over 100 µM. The GI50 (SK-MEL-2 melanoma) was 4.25 µM, the TGI (SK-MEL-2 melanoma) was over 100 µM and the GI50 (NCI-H23 lung) was 3.2 µM. It also gave a TGI (NCI-H23 lung) of over 100 µM, a GI50 (IGROV1 ovarian) of 4.31 µM and a TGI (IGROV1 ovarian) of over 100 µM. It also gave a GI50 (SK-MEL-5 melanoma) of 1.97 µM, a TGI (SK-MEL-5 melanoma) of 6.71 µM and a GI50 (UACC-62 melanoma) of 1.32 µM. It also gave a TGI (UACC-62 melanoma) of over 100 µM, a GI50 (OVCAR-3 ovarian) of 2.98 µM and a TGI (OVCAR-3 ovarian) of 8.21 µM. The GI50 (OVCAR-5 ovarian) was 4.4 µM, the TGI (OVCAR-5 ovarian) was over 100 µM and the GI50 (NCI/ADR-RES ovarian) was 2.77 µM. It also gave a TGI (NCI/ADR-RES ovarian) of 37.2 µM, a GI50 (SF-268 CNS) of 3.18 µM and a TGI (SF-268 CNS) of over 100 µM. For the same compound, the GI50 (TK-10 renal) was 4.79 µM, the TGI (TK-10 renal) was over 100 µM and the GI50 (OVCAR-4 ovarian) was 3.93 µM. The TGI (OVCAR-4 ovarian) was over 100 µM, the GI50 (MCF7 breast) was 0.913 µM and the TGI (MCF7 breast) was over 100 µM. The GI50 (BT-549 breast) was 2.15 µM, the TGI (BT-549 breast) was 7.27 µM and the GI50 (OVCAR-8 ovarian) was 2.89 µM. For the same compound, the TGI (OVCAR-8 ovarian) was 18.2 µM, the GI50 (HS 578T breast) was 4.65 µM and the TGI (HS 578T breast) was over 100 µM. The GI50 (A498 renal) was 2.72 µM, the TGI (A498 renal) was over 100 µM and the GI50 (SF-539 CNS) was 2.36 µM. It also gave a TGI (SF-539 CNS) of 7.24 µM, a GI50 (T-47D breast) of 2.66 µM and a TGI (T-47D breast) of over 100 µM.
